Experimental data from patent US20230293630A1, “Coronavirus T Cell Epitopes and Uses Thereof” (priority 2020, published 2023).

Test system: SARS-CoV-2-specific CD4+ T cells (OX40+CD137+) in PBMC
Type: cell-based, human
Settings: not given

Sequence | Frequency of response (%) | Magnitude by # of responding donors | Sum of response
AGNGGDAALALLLLD | 21 | 416 | 1249

Same assay, conditions: CD4+ T cell epitopes identified by AIM assay; percent of tested donors responding

Sequence | Frequency of response (%)
NLLLQYGSFCTQLNR | 31
KVTFFPDLNGDVVAI [SEQ ID NO 257] | 15
CEFQFCNDPFLGVYY | 27
KLLKSIAATRGATVV [SEQ ID NO 258] | 6
LVYFLQSINFVRIIM [SEQ ID NO 251] | 7
KPSKRSFIEDLLFNK | 17
IVRFPNITNLCPFGE | 9
FLGIITTVAAFHQEC [SEQ ID NO 254] | 9

Same assay, conditions: CD4+ T cell epitopes identified by AIM assay; share of donors responding

Sequence | Frequency of response (%)
GVPINTNSSPDDQIG | 8
VYYPDKVFRSSVLHS | 15
YDANYFLCWHTNCYD | 7
ITGGIAIAMACLVGL | 17
SFNPETNILLNVPLH | 8
FLHFLPRVFSAVGNI | 9
RENNRVVISSDVLVN | 33
SDVLYQPPQTSITSA | 8
MWLSYFIASFRLFAR | 25
RRGPEQTQGNFGDQE | 8
GAVILRGHLRIAGHH | 8
VIRGDEVRQIAPGQT | 9
LLFNKVTLADAGFIK | 8
TFKCYGVSPTKLNDL | 8
EFVFKNIDGYFKIYS | 18
NLYDKLVSSFLEMKS | 8
WPQIAQFAPSASAFF | 33
DFLEYHDVRVVLDFI | 18
TQHQPYVVDDPCPIH | 36
LTQYNRYLALYNKYK | 8
AVMSLKEGQINDMIL | 33
KLNDLCFTNVYADSF | 8
LIFLWLLWPVTLACF | 8
TVTLLPAADLDDFSK | 7
AVITREVGFVVPGLP | 9

Sequence | Frequency of response (%)
YMSALNHTKKWKYPQ | 9
YVVDDPCPIHFYSKW | 36
TNILLNVPLHGTILT | 25
RLFARTRSMWSFNPE | 8
ARKSAPLIELCVDEA | 18
EIYQAGSTPCNGVEG | 8
QRNFYEPQIITTDNT | 7
QELGKYEQYIKWPWY | 8
GSLVVRCSFYEDFLE | 27
ILLNKHIDAYKTFPP | 42
QEPKLGSLVVRCSFY | 9
GSSGVVNPVMEPIYD | 7
SASFSTFKCYGVSPT | 8
FHQECSLQSCTQHQP | 18
HTTDPSFLGRYMSAL | 18
AGFIKQYGDCLGDIA | 25
NLVRDLPQGFSALEP | 27
LYENQKLIANQFNSA | 7
TPPIKDFGGFNFSQI | 8
LIRQGTDYKHWPQIA | 15
VNNSYECDIPIGAGI | 11
SALEPLVDLPIGINI | 9
PVYSFLPGVYSVIYL | 8
MFTPLVPFWITIAYI | 8

Same assay, conditions: CD4+ T cell epitopes identified by AIM assay; sum of response per responding donor

Sequence | Magnitude by # of responding donors
GVPINTNSSPDDQIG | 108
NLLLQYGSFCTQLNR | 1140
VYYPDKVFRSSVLHS | 198
YDANYFLCWHTNCYD | 209
ITGGIAIAMACLVGL | 207
SFNPETNILLNVPLH | 123
FLHFLPRVFSAVGNI | 491
RENNRVVISSDVLVN | 170
SDVLYQPPQTSITSA | 394
MWLSYFIASFRLFAR | 343
RRGPEQTQGNFGDQE | 518
GAVILRGHLRIAGHH | 512
VIRGDEVRQIAPGQT | 180
LLFNKVTLADAGFIK | 297
TFKCYGVSPTKLNDL | 221
EFVFKNIDGYFKIYS | 336
NLYDKLVSSFLEMKS | 150
WPQIAQFAPSASAFF | 376
DFLEYHDVRVVLDFI | 341

Sequence | Magnitude by # of responding donors
TQHQPYVVDDPCPIH | 338
LTQYNRYLALYNKYK | 638
AVMSLKEGQINDMIL | 104
KLNDLCFTNVYADSF | 130
LIFLWLLWPVTLACF | 1194
TVTLLPAADLDDFSK | 648
AVITREVGFVVPGLP | 682
YMSALNHTKKWKYPQ | 109
YVVDDPCPIHFYSKW | 872
TNILLNVPLHGTILT | 543
RLFARTRSMWSFNPE | 141
ARKSAPLIELCVDEA | 329
EIYQAGSTPCNGVEG | 1121
KVTFFPDLNGDVVAI [SEQ ID NO 257] | 147
CEFQFCNDPFLGVYY | 359
QRNFYEPQIITTDNT | 302
KLLKSIAATRGATVV [SEQ ID NO 258] | 230
QELGKYEQYIKWPWY | 768
LVYFLQSINFVRIIM [SEQ ID NO 251] | 218

Sequence | Magnitude by # of responding donors
GSLVVRCSFYEDFLE | 231
ILLNKHIDAYKTFPP | 483
QEPKLGSLVVRCSFY | 124
GSSGVVNPVMEPIYD | 186
KPSKRSFIEDLLFNK | 622
SASFSTFKCYGVSPT | 294
FHQECSLQSCTQHQP | 413
HTTDPSFLGRYMSAL | 2461
IVRFPNITNLCPFGE | 107
AGFIKQYGDCLGDIA | 817
NLVRDLPQGFSALEP | 607
LYENQKLIANQFNSA | 195
FLGIITTVAAFHQEC [SEQ ID NO 254] | 185
TPPIKDFGGFNFSQI | 421
LIRQGTDYKHWPQIA | 216
VNNSYECDIPIGAGI | 398
SALEPLVDLPIGINI | 167
PVYSFLPGVYSVIYL | 650
MFTPLVPFWITIAYI | 602

Same assay, conditions: CD4+ T cell epitopes identified by AIM assay; total response

Sequence | Sum of response
GVPINTNSSPDDQIG | 108
VYYPDKVFRSSVLHS | 395
YDANYFLCWHTNCYD | 209
ITGGIAIAMACLVGL | 414
SFNPETNILLNVPLH | 123
FLHFLPRVFSAVGNI | 491
RENNRVVISSDVLVN | 170
SDVLYQPPQTSITSA | 394
MWLSYFIASFRLFAR | 1030
RRGPEQTQGNFGDQE | 518
GAVILRGHLRIAGHH | 512
VIRGDEVRQIAPGQT | 180
LLFNKVTLADAGFIK | 297
TFKCYGVSPTKLNDL | 221
EFVFKNIDGYFKIYS | 672
NLYDKLVSSFLEMKS | 150
WPQIAQFAPSASAFF | 1503
DFLEYHDVRVVLDFI | 681
TQHQPYVVDDPCPIH | 1352
LTQYNRYLALYNKYK | 638
AVMSLKEGQINDMIL | 104
KLNDLCFTNVYADSF | 130
LIFLWLLWPVTLACF | 1194
TVTLLPAADLDDFSK | 648
AVITREVGFVVPGLP | 682

Sequence | Sum of response
YMSALNHTKKWKYPQ | 109
YVVDDPCPIHFYSKW | 3488
TNILLNVPLHGTILT | 1628
RLFARTRSMWSFNPE | 141
ARKSAPLIELCVDEA | 658
EIYQAGSTPCNGVEG | 1121
QRNFYEPQIITTDNT | 302
QELGKYEQYIKWPWY | 768
GSLVVRCSFYEDFLE | 694
ILLNKHIDAYKTFPP | 2416
QEPKLGSLVVRCSFY | 124
GSSGVVNPVMEPIYD | 186
SASFSTFKCYGVSPT | 294
FHQECSLQSCTQHQP | 826
HTTDPSFLGRYMSAL | 4921
AGFIKQYGDCLGDIA | 2450
NLVRDLPQGFSALEP | 1822
LYENQKLIANQFNSA | 195
TPPIKDFGGFNFSQI | 421
LIRQGTDYKHWPQIA | 431
VNNSYECDIPIGAGI | 398
SALEPLVDLPIGINI | 167
PVYSFLPGVYSVIYL | 650
MFTPLVPFWITIAYI | 602

Same assay, conditions: CD4+ T cell epitopes identified by AIM assay; total response summed over donors

Sequence | Sum of response
NLLLQYGSFCTQLNR | 4560
KVTFFPDLNGDVVAI [SEQ ID NO 257] | 293
CEFQFCNDPFLGVYY | 1077
KLLKSIAATRGATVV [SEQ ID NO 258] | 230
LVYFLQSINFVRIIM [SEQ ID NO 251] | 218
KPSKRSFIEDLLFNK | 1243
IVRFPNITNLCPFGE | 107
FLGIITTVAAFHQEC [SEQ ID NO 254] | 185
